Test results reported in patent US10227356B2, “Compounds, compositions and methods for inhibiting CNKSR1” (Phusis Therapeutics, Inc., priority 2015, dated 2019).
Read-outs that look alike come from different tables or passages of the source.

Legend:
AKT1 PH-domain = target: T1, AKT1 PH-domain (Homo sapiens, UniProt P31749); test: Surface plasmon resonance binding to AKT PH-domain; settings: SPR; ND = no binding determined
T1 construct: The PH-domain His-fusion proteins (CNK1 and AKT1) were expressed and immobilized on a NTA chip; made in house
T1 sequence (P31749 5-108 limits assumed): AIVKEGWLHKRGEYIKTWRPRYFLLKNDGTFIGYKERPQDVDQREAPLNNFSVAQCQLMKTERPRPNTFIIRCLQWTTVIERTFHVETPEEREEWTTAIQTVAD
Description: All interaction analyses were done with a Biacore T200 Control Software v3.2, and BIAevaluation v2.0 analysis software (Biacore). The PH-domain His-fusion proteins (CNK1 and AKT1) were expressed and immobilized on a NTA chip to a level of 10,000 response units or less. Small molecule analytes at concentrations ranging from 50 μM to 0.010 μM were injected at a high flow rate (30 μL/min). DMSO concentrations in all samples and running buffer were 1-5% (v/v) […]
A commercially available docking package GLIDE was chosen as the docking algorithm used to select and optimize compounds, providing a GlideScore as a rough estimate of binding affinity that was used to rank and select the best compounds. Additionally, ligand-based approaches provided an alternative to structure based drug discovery. Ligand-based virtual screening methodologies can take into account shape and electrostatics and the pharmacophoric features (acceptor, donor, hydrophobic, aromatic, etc.) of its functional groups. Inositol tetraphosphate (IP4) binding to the PH-domain of CNKSR1 provided a good starting point for shape screening. Both structure-based and ligand-based approaches were used to find novel compounds and to refine and improve lead compounds (Tables 2, 3 and 4). SPR interaction analyses for the compounds were performed with a Biacore T200, using BiacoreT200 Control Software v3.2 and BIAevaluation v2.0analysis software (Biacore).

PH-domain of CNKSR1 = target: T2, PH-domain of CNKSR1 (Homo sapiens, UniProt Q969H4); test: Surface plasmon resonance binding to CNK PH-domain
T2 construct: The PH-domain His-fusion proteins (CNK1 and AKT1) were expressed and immobilized on a NTA chip; made in house
T2 sequence (Q969H4 403-502 limits assumed): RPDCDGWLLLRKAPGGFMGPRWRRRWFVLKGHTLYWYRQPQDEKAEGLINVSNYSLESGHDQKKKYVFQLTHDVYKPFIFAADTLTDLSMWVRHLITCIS
Description: The PH-domain His-fusion proteins (CNK1 and AKT1) were expressed and immobilized on a NTA chip to a level of 10,000 response units or less.
Additionally, ligand-based approaches provided an alternative to structure based drug discovery.

mut-KRas NSCLC lines [1] = test: Proliferation assay 2D, mut-KRas NSCLC lines; format: cell-based; settings: for In vitro IC50 against mut-KRas NSCLC 2D ave: mean of 12 mut-KRas NSCLC lines; for IC50: range across mut-Kras cell lines, read-out: In vitro IC50 against mut-KRas NSCLC 2D range
Description: A panel of 30 cell lines and an extensive characterization were obtained from Dr. John Minna (UTSW). All cell lines were cultured in RPMI 1640 with 10% FBS. Cells were treated with concentrations of agents at concentrations 0.01 to 50 μM and evaluated as described above. IC50's were determined using Excelfit.

Pharmacokinetics (PK) = format: in vivo; set-up: AUC: concentration or dose not given beside the values; settings: for half-life: read-out: PK T1/2 (converted)
mut-KRAS cells = test: Proliferation assay, mut-KRAS cell lines; format: cell-based; settings: read-out: Ave IC50 mut-KRAS
Description: (§1) These cells were cultured in McCoys media with 10% FBS to 80% confluency. […] Cells were incubated for 72 hours with the drugs, and then viability was assessed using an MTS viability assay. Cells were exposed to MTS reagent (Promega) dissolved in PBS (Hyclone) at a concentration of 200 μL reagent/mL media for 2 hours. Absorbance was then read at 490 nm, and viability was expressed as a percentage normalized between the negative control (no cells plated) and the condition of cells with no drug added (100% viability) normalized as the upper limit of viability. A panel of 30 cell lines and an extensive characterization were obtained from Dr. John Minna (UTSW). All cell lines were cultured in RPMI 1640 with 10% FBS. […] IC50's were determined using Excelfit.

wt-KRAS cells = test: Proliferation assay, wt-KRAS cell lines; format: cell-based; settings: read-out: Ave IC50 wt-KRAS
Description: as §1

CNK1 = target: T3, CNK1 (Homo sapiens, UniProt Q969H4); test: SPR competition, CNK1 binding to PIP3; settings: read-out: SPR Competition Percent inhibition of CNK1 binding to PIP3 at 50 μM, X = none
T3 construct: The PH-domain His-fusion proteins (CNK1 and AKT1) were expressed and immobilized on a NTA chip; made in house
T3 sequence (Q969H4 403-502 limits assumed): T2 sequence (Q969H4 403-502 limits assumed)

mut-KRas NSCLC lines [2] = test: Proliferation assay 3D, mut-KRas NSCLC lines; format: cell-based; settings: for In vitro IC50 against mut-KRas NSCLC 3D ave: mean of 6 mut-KRas NSCLC lines; for IC50: range across mut-Kras cell lines, read-out: In vitro IC50 against mut-KRas NSCLC 3D range
Description: The plates were optimized for the best cell density and found to be 20,000 cells per mL. The lid was removed from a 96-well Greiner plate and turned upside down. 20 μL of the 20,000 cells per mL suspension was then added directly into the middle of the circles found on the lid of the 96-well plate forming a small drop. 100 μL of media was added into the corresponding wells, used to maintain the […] of the drops, and the lid was flipped back over carefully placing it back onto the plate without disturbing the drop. The plate was then placed into the incubator for 3 days to allow the cells to migrate to the bottom of the drop due to gravity. After 3 days, […] of media was added to the corresponding wells a SCIVAX 96-well plate. The lid from the Greiner 96-well plate was removed and placed onto the SCIVAX plate allowing the drop to come in contact with the media and placed back into the incubator. After one hour, 200 μL of media was removed from the corresponding wells carefully without disturbing the spheroid and imaged.

| Compound | In vitro IC50 against mut-KRas NSCLC 2D ave (mut-KRas NSCLC lines [1]) | IC50 (mut-KRas NSCLC lines [1]) | half-life (Pharmacokinetics (PK); in vivo) | IC50 (mut-KRAS cells) | IC50 (wt-KRAS cells) | AUC (Pharmacokinetics (PK); in vivo) | also measured |
| --- | --- | --- | --- | --- | --- | --- | --- |
| COc1c(/C=C/C(=O)O)cc(NS(=O)(=O)c2cccs2)c2c1OCO2 [Compound 84, (E)-3-(4-methoxy-7-(thiophene-2-sulfonamido)benzo[d][1,3]dioxol-5-yl)acrylic acid] | – | – | – | – | – | – | AKT KD (AKT1 PH-domain): No binding |
| CCOC(=O)CCc1cc(NS(=O)(=O)c2cccs2)c2c(c1OC)OCO2 [Compound 85, ethyl 3-(4-methoxy-7-(thiophene-2-sulfonamido)benzo[d][1,3]dioxol-5-yl)propanoate] | – | – | – | – | – | – | Kd (PH-domain of CNKSR1; SPR, ND = no binding determined, read-out: CNK KD): > 500 µM; Kd (AKT1 PH-domain): > 500 µM |
| CCOC(=O)/C=C/c1cc(NS(=O)(=O)c2cccs2)c2c(c1OC)OCO2 [Compound 86, (E)-ethyl 3-(4-methoxy-7-(thiophene-2-sulfonamido)benzo[d][1,3]dioxol-5-yl)acrylate] | – | – | – | – | – | – | Kd (AKT1 PH-domain): > 500 µM |
| CN1CC(=O)N(/C=C/c2cc(NS(=O)(=O)c3cccs3)c3c(c2O)OCO3)C1=O [Compound 91, (E)-N-(7-hydroxy-6-(2-(3-methyl-2,5-dioxoimidazolidin-1-yl)vinyl)benzo[d][1,3]dioxol-4-yl)thiophene-2-sulfonamide] | 23 µM | 6 to 35 µM | 1 h | – | – | – | Kd (PH-domain of CNKSR1; Summary table for CNKSR1 inhibitors, read-out: SPR Kd): 36 µM; Cmax (Pharmacokinetics (PK); in vivo, printed in the T1/2/AUC column): 2200 nM |
| COc1c(/C=C2\SC(=S)NC2=O)c(NS(=O)(=O)c2cccs2)cc2c1OCO2 [Compound 103] | 25 µM | 5.1 to 60 µM | – | – | – | – | IC50 (mut-KRAS cells; average over mut-KRAS lines): 14.7 µM; IC50 (wt-KRAS cells; average over wt-KRAS lines): 95 µM |
| O=c1ccoc2c3c(cc(NS(=O)(=O)c4cccs4)c12)OCO3 [Compound 104] | – | – | – | – | – | – | IC50 (mut-KRAS cells; average over mut-KRAS lines): 16.6 µM; IC50 (wt-KRAS cells; average over wt-KRAS lines): 100 µM; inhibition at 50 µM (CNK1): 0% |
| CCNC(=O)/C=C/c1c(NS(=O)(=O)c2cccs2)cc2c(c1OC)OCO2 [Compound 105] | 6.7 µM | 1.6 to 94 µM | – | 10 µM | 100 µM | – | – |
| CNC(=O)/C=C/c1c(NS(=O)(=O)c2cccs2)cc2c(c1OC)OCO2 [Compound 106] | 16.3 µM | 0.8 to 100 µM | 1.7 h | 8.4 µM | 68 µM | 7000 ng·h/mL | In vitro IC50 against mut-KRas NSCLC 3D ave (mut-KRas NSCLC lines [2]): 8.4 µM; IC50 (mut-KRas NSCLC lines [2]): 0.096 to 75 µM |
| COc1c(/C=C/C(N)=O)c(NS(=O)(=O)c2cccs2)cc2c1OCO2 [Compound 107] | 19.5 µM | 1 to 100 µM | 3.2 h | 1.5 µM | 100 µM | 34500 ng·h/mL | In vitro IC50 against mut-KRas NSCLC 3D ave (mut-KRas NSCLC lines [2]): 1.5 µM; IC50 (mut-KRas NSCLC lines [2]): 0.82 to 75 µM |
| COc1c(/C=C/C(=O)NCc2ccco2)c(NS(=O)(=O)c2cccs2)cc2c1OCO2 [Compound 108] | 35 µM | 0.2 to 100 µM | 1 h | 5.2 µM | 100 µM | 3410 ng·h/mL | – |
| COc1c(/C=C/C(=O)N2CCOCC2)c(NS(=O)(=O)c2cccs2)cc2c1OCO2 [Compound 109] | 18.9 µM | 0.1 to 100 µM | 0.75 h | 6.5 µM | 100 µM | 1200 ng·h/mL | – |
| COc1c(/C=C/C(=O)N2CCN(C)CC2)c(NS(=O)(=O)c2cccs2)cc2c1OCO2 [Compound 111] | 19.2 µM | 0.6 to 100 µM | 1 h | 4.1 µM | 33.7 µM | 30000 ng·h/mL | In vitro IC50 against mut-KRas NSCLC 3D ave (mut-KRas NSCLC lines [2]): 4.1 µM; IC50 (mut-KRas NSCLC lines [2]): 0.12 to 13.2 µM |
| COc1c(/C=C/C(=O)NCC(C)O)c(NS(=O)(=O)c2cccs2)cc2c1OCO2 (stereo not drawn) [Compound 112] | 65 µM | 19 to 100 µM | – | 25 µM | 100 µM | – | – |
| CCOC(=O)/C=C/c1c(NS(=O)(=O)c2cccs2)cc2c(c1OC)OCCO2 [Compound 113] | 25 µM | 13.7 to 100 µM | – | 55.1 µM | 100 µM | – | – |
| COc1c(/C=C/C(=O)O)c(NS(=O)(=O)c2cccs2)cc2c1OCCO2 [Compound 114] | 57 µM | 12.1 to 100 µM | – | 85 µM | 100 µM | – | – |
| COc1c(/C=C/CO)c(NS(=O)(=O)c2cccs2)cc2c1OCCO2 [Compound 115] | 11.2 µM | 1.6 to 100 µM | – | 39.1 µM | 100 µM | – | – |
| CCOC(=O)/C=C/c1cc(NS(=O)(=O)c2cccs2)c2c(c1OC)OCCO2 [Compound 116] | – | – | – | – | – | – | IC50 (mut-KRAS cells; average over mut-KRAS lines): 100 µM |
| CCOC(=O)/C=C/c1c(NS(=O)(=O)c2cccs2)cc2c(c1OC)OCO2 [Compound 151, ethyl 3-[4-methoxy-6-(thiophene-2-sulfonamido)-2H-1,3-benzodioxol-5-yl]prop-2-enoate] | 18 µM | 0.5 to 100 µM | 0.5 h | – | – | – | PK metabolism (remark in place of AUC) (Pharmacokinetics (PK); AUC NA): rapid; In vitro IC50 against mut-KRas NSCLC 3D ave (mut-KRas NSCLC lines [2]): 0.69 µM; IC50 (mut-KRas NSCLC lines [2]): 0.025 to 2.7 µM |
| COc1c(/C=C/CO)c(NS(=O)(=O)c2cccs2)cc2c1OCO2 [Compound 152, N-{6-[(1E)-3-hydroxyprop-1-en-1-yl]-7-methoxy-2H-1,3-benzodioxol-5-yl}thiophene-2-sulfonamide] | 20 µM | 0.1 to 100 µM | 3.1 h | – | – | 7000 ng·h/mL | IC50 (mut-KRas NSCLC lines [2]): 0.015 to 0.26 µM |
